From US20230075856A1, “CYCLIC SULFAMIDE COMPOUNDS FOR TREATMENT OF HBV” (Assembly Biosciences, Inc., priority 2018, published 2023)

System: HBV viral load production from HepAD38 cells
Assay: Viral production from HepAD38 cells: viral load in supernatant by qPCR of the HBV core sequence
Format: cell-based
Settings: 5 days incubation, qPCR of supernatant HBV DNA vs DMSO control, read-out: viral load lowering EC50 (Activity)
Experimental: Assay Measuring Activity of Test Compounds on Viral Production from HepAD38 Cells
HepAD38 cells grown in a T-150 flask (Corning, cat #: 430825) with Growth Medium (DMEM/F12 […] (Hyclone, cat #: SH30023.02), 1× Pen/Strep (Invitrogen, cat #: 15140-122), 10% FBS (Tissue Culture Biologics, cat #: 101), […] G418 (Alfa Aesar, cat #: J62671), 1 μg/mL Tetracycline (Teknova, cat #: T3320)) were detached with 0.25% trypsin-EDTA (Invitrogen, cat #: 25200-056). Tetracycline-free treatment medium (15 mL DMEM/F12 (1:1) 1× Pen/step, with 2% FBS, Tet-system approved (Clontech, cat #: 631106) were then added to mix, transferred into a 50 ml conical tube (Falcon, cat #: 21008-918,) and spun at 1300 rpm for 5 min. Pelleted cells were then re-suspended/washed with 50 mL of 1×DPBS (Invitrogen, cat #: 14190-136) 2 times and 50 mL treatment medium twice. HepAD38 cells were then re-suspended with 10 mL of treatment medium, syringed and counted. Wells of 96-well clear bottom TC plate (Corning, cat #: 3904,) were seeded at 50,000 cells/well in 180 μL of treatment medium, and 20 μL of either 10% DMSO (Sigma, cat #: D4540) as controls or a 10× solution of test compounds in 10% DMSO in treatment media was added for a final compound concentration starting at 10 μM, and plates were incubated in 5% CO2 incubator at 37° C. for 5 days.
Subsequently viral load production was assayed by quantitative PCR (qPCR) of the HBV core sequence. PCR reaction mixture containing forward primers HBV-f 5′-CTGTGCCTTGGGTGGCTIT-3′ (IDT DNA), Reverse primers HBV-r 5′-[…]-3′ (IDT DNA), Fluorescent TaqMan™ Probes HBV-probe 5′-FAM/AGCTCCAAA/ZEN/[…]/3IABkFQ-3′ (IDT DNA), 10 μL/well of PerfeCTa® qPCR ToughMix® (Quanta Biosciences, Cat #: 95114-05K), and 6 μL/well of DEPC water (Alfa Aesar, cat #: J62087) was prepared. Four μL of supernatant was added to 16 μL of the reaction mixture in a qPCR plate (Applied Biosytems, Cat #: 4309849), sealed with a film (Applied Biosystems, Cat #: 4311971), centrifuged for a few seconds, and subsequently run on an Applied Biosystems VIIA7. The PCR mixture was incubated at 45° C. for 5 min, then 95° C. for 10 min, followed by 40 cycles of 10 seconds at 95° C. and 20 seconds at 60° C. Viral load was quantified against known HBV DNA standards by using ViiA™ 7 Software. Viral load in the supernatant from wells with treated cells were compared against viral load in supernatant from DMSO control wells (≥3 per plate). Cell viability assay was performed with CellTiter-Glo Luminescent Cell Viability Assay (Promega, cat #: G7573) with modification. Mixed appropriate amount of CellTiter-Glo (CTG) 1×DPBS in a 1:1 ratio, added 100 uL of the mixture to each well followed completely removal of all supernatant in each well without touching cell surface. Incubated the plate at room temperature for 10 min on an orbital shaker, and then read the plate with a plate reader (TECAN M1000 or Envision). EC50 or CC50 values were calculated through curve-fitting of the four-parameter nonlinear-logistic-regression model (GraphPad Prism or Dotmatics). CC50 values were all >10 μM.

Compound	EC50 [nM]
COc1ccc2nc(CNC(=O)C3CC(C(=O)Nc4ccc(F)c(Cl)c4)N(C)S(=O)(=O)N3)sc2c1 (single isomer, unassigned) [1011-ISOMER-A, N3-(3-Chloro-4-fluoro-phenyl)-N5-[(6-methoxy-1,3-benzothiazol-2-yl)methyl]-2-methyl-1,1-dioxo-1,2,6-thiadiazinane-3,5-dicarboxamide]	100 to 10000
CN1C(C(=O)Nc2ccc(F)c(Cl)c2)CC(C(=O)NC2CCN(c3ccnc(Cl)c3)CC2)NS1(=O)=O (single isomer, unassigned) [1012-ISOMER-B, N3-(3-Chloro-4-fluoro-phenyl)-N5-[1-(2-chloro-4-pyridyl)-4-piperidyl]-2-methyl-1,1-dioxo-1,2,6-thiadiazinane-3,5-dicarboxamide]	50 to 100
CN1C(C(=O)Nc2ccc(F)c(Cl)c2)CC(C(=O)NC(c2ccccc2)c2ccccc2)NS1(=O)=O (single isomer, unassigned) [1014-ISOMER-B, N5-benzhydryl-N3-(3-Chloro-4-fluoro-phenyl)-2-methyl-1,1-dioxo-1,2,6-thiadiazinane-3,5-dicarboxamide]	100 to 10000
Cc1nc(-c2ccccc2Cl)sc1CNC(=O)C1CC(C(=O)Nc2ccc(F)c(Cl)c2)N(C)S(=O)(=O)N1 (single isomer, unassigned) [1015-ISOMER-B, N3-(3-Chloro-4-fluoro-phenyl)-N5-[[2-(2-chlorophenyl)-4-methyl-thiazol-5-yl]methyl]-2-methyl-1,1-dioxo-1,2,6-thiadiazinane-3,5-dicarboxamide]	50 to 100

Same assay, conditions: Hepatitis B virus, HePAD38, 120 h, 5 days incubation, qPCR of supernatant HBV DNA vs DMSO control, read-out: viral load lowering EC50 (Activity)

Compound	EC50 [nM]
C[C@@H](NC(=O)C1CC(C(=O)Nc2ccc(F)c(Cl)c2)N(C)S(=O)(=O)N1)c1ccc(C(F)(F)F)cc1 (single isomer, unassigned) [493-R-ISOMER-B]	100 to 10000
C[C@H](NC(=O)C1CC(C(=O)Nc2ccc(F)c(Cl)c2)N(C)S(=O)(=O)N1)c1ccc(C(F)(F)F)cc1 (single isomer, unassigned) [493-S-ISOMER-A]	< 50
COc1ccc2nc(CNC(=O)C3CC(C(=O)Nc4ccc(F)c(Cl)c4)N(C)S(=O)(=O)N3)sc2c1 (single isomer, unassigned) [1011-ISOMER-B, N3-(3-Chloro-4-fluoro-phenyl)-N5-[(6-methoxy-1,3-benzothiazol-2-yl)methyl]-2-methyl-1,1-dioxo-1,2,6-thiadiazinane-3,5-dicarboxamide]	< 50
CN1C(C(=O)Nc2ccc(F)c(Cl)c2)CC(C(=O)NC2CCN(c3ccnc(Cl)c3)CC2)NS1(=O)=O (single isomer, unassigned) [1012-ISOMER-A, N3-(3-Chloro-4-fluoro-phenyl)-N5-[1-(2-chloro-4-pyridyl)-4-piperidyl]-2-methyl-1,1-dioxo-1,2,6-thiadiazinane-3,5-dicarboxamide]	< 50
CN1C(C(=O)Nc2ccc(F)c(Cl)c2)CC(C(=O)NC(c2ccccc2)c2ccccc2)NS1(=O)=O (single isomer, unassigned) [1014-ISOMER-A, N5-benzhydryl-N3-(3-Chloro-4-fluoro-phenyl)-2-methyl-1,1-dioxo-1,2,6-thiadiazinane-3,5-dicarboxamide]	< 50
Cc1nc(-c2ccccc2Cl)sc1CNC(=O)C1CC(C(=O)Nc2ccc(F)c(Cl)c2)N(C)S(=O)(=O)N1 (single isomer, unassigned) [1015-ISOMER-A, N3-(3-Chloro-4-fluoro-phenyl)-N5-[[2-(2-chlorophenyl)-4-methyl-thiazol-5-yl]methyl]-2-methyl-1,1-dioxo-1,2,6-thiadiazinane-3,5-dicarboxamide]	< 50
Cc1nc(-c2ccccc2F)sc1CN(C(=O)C1CC(C(N)=O)NS(=O)(=O)N1C)c1ccc(F)c(Cl)c1 (single isomer, unassigned) [1016-ISOMER-A, N3-(3-chloro-4-fluoro-phenyl)-N-[[2-(2-fluorophenyl)-4-methyl-thiazol-5-yl]methyl]-2-methyl-1,1-dioxo-1,2,6-thiadiazinane-3,5-dicarboxamide]	< 50
